From patent US20240059673A1, “SUBSTITUTED INDOLE COMPOUNDS” (Gilead Sciences, Inc., priority 2020, published 2024)
Where two headings read alike, the source gives them in different places.

Columns and labels:
TLR9 = biological target: T1, TLR9 (Homo sapiens, UniProt Q9NR96); assay: Human PBMC cell-based assay, TLR9 agonist stimulation; settings: human PBMCs, read-out: TLR-9 EC50
T1 construct: lymphocytes, monocytes and dendritic cells that express TLR7, TLR8 and TLR9; endogenous in cells; host or cells: cryopreserved human PBMCs from healthy donors
T1 sequence (Q9NR96 26-1032): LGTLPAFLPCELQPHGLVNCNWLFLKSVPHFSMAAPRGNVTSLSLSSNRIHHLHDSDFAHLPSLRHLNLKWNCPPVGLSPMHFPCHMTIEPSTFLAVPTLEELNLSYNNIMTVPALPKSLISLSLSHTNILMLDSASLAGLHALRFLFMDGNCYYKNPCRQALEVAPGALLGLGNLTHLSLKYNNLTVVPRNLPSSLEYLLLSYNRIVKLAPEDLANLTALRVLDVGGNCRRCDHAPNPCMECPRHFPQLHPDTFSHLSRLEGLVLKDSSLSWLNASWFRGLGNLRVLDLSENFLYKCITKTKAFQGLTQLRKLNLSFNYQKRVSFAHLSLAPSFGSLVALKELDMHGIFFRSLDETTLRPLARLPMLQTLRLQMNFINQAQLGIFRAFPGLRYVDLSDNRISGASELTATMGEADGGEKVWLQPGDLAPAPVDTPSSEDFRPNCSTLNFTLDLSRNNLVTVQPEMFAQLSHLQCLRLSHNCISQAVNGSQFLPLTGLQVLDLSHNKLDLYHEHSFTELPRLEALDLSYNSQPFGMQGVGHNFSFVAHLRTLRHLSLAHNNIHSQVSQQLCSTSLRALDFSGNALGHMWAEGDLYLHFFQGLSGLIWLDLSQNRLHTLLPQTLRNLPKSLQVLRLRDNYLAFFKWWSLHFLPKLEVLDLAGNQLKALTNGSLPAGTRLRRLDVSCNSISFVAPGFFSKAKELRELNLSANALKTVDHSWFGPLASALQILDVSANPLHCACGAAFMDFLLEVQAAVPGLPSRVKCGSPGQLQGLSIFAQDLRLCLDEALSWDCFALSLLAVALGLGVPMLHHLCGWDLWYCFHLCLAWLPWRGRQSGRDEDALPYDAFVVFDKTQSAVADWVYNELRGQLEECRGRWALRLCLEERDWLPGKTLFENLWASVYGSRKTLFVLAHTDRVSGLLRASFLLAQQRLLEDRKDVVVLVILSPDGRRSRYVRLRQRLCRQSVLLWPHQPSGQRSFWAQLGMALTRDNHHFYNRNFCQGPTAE
Text: (§1) Human Peripheral Blood Mononuclear Cell (PBMC) Cell-Based Assay
(§2) Human peripheral blood mononuclear cells (PBMCs) consist of lymphocytes, monocytes and dendritic cells that express TLR7, TLR8 and TLR9. These cells respond to TLR7, TLR8 and TLR9 ligand stimulation and produce cytokines and chemokines in vitro and in vivo. Human PBMCs are therefore suitable to be used in a cell-based assay to assess the in vitro potency of a TLR 7, 8, and/or 9 antagonist. The result is expected to be more translatable to the pharmacodynamics response in vivo than cell line-based assays.
(§3) Cryopreserved human PBMCs from healthy donors were thawed and resuspended in RPMI-1640 media with L-glutamine (Corning) supplemented with 10% Fetal Bovine Serum (Hyclone) and 1× Penicillin-Streptomycin (Corning). After counting, the cell density was adjusted to 2 million cells/ml and incubated for 1 hour at 37° C., 5% CO2 for recovery. Following the recovery, the cells were plated by adding 50p per well (100,000 cells) to 384-well cell culture plates (Greiner) containing 250 nl of test antagonists in 100% DMSO per well, in a 10 points dose response in quadruplicates. PBMCs were incubated in the presence of test antagonists for one hour at 37° C., 5% CO2 before being stimulated with a TLR7 or TLR9 agonist. GS-986 (Gilead Sciences) was used as the TLR7 agonist at a final concentration of 400 nM. ODN-2216 (InvivoGen) was used as the TLR9 agonist at a final concentration of 3μM. PBMCs were incubated in the presence of the test antagonist and the TLR7 (or TLR9) agonist for an additional 6 hours at 37° C., 5% CO2. At the end of the incubation, the cell culture plates were centrifuged at 500 g for 5 min, and the cell culture supernatant was collected. The level of cytokines (IL-6 and IFNα) in the supernatant was measured by electrochemiluminescence immunoassays (Mesoscale Discovery) following manufacturer's recommended protocols. The level of cytokine measured was plotted against the test antagonist concentration and fitted to a sigmoidal function to determine the EC50, which are shown below in Table 2.

TLR7 = biological target: T2, TLR7 (Homo sapiens, UniProt Q9NYK1); assay: Human PBMC cell-based assay, TLR7 agonist stimulation; settings: human PBMCs, read-out: TLR-7 EC50
T2 construct: lymphocytes, monocytes and dendritic cells that express TLR7, TLR8 and TLR9; endogenous in cells; host or cells: cryopreserved human PBMCs from healthy donors
T2 sequence (Q9NYK1 27-1049): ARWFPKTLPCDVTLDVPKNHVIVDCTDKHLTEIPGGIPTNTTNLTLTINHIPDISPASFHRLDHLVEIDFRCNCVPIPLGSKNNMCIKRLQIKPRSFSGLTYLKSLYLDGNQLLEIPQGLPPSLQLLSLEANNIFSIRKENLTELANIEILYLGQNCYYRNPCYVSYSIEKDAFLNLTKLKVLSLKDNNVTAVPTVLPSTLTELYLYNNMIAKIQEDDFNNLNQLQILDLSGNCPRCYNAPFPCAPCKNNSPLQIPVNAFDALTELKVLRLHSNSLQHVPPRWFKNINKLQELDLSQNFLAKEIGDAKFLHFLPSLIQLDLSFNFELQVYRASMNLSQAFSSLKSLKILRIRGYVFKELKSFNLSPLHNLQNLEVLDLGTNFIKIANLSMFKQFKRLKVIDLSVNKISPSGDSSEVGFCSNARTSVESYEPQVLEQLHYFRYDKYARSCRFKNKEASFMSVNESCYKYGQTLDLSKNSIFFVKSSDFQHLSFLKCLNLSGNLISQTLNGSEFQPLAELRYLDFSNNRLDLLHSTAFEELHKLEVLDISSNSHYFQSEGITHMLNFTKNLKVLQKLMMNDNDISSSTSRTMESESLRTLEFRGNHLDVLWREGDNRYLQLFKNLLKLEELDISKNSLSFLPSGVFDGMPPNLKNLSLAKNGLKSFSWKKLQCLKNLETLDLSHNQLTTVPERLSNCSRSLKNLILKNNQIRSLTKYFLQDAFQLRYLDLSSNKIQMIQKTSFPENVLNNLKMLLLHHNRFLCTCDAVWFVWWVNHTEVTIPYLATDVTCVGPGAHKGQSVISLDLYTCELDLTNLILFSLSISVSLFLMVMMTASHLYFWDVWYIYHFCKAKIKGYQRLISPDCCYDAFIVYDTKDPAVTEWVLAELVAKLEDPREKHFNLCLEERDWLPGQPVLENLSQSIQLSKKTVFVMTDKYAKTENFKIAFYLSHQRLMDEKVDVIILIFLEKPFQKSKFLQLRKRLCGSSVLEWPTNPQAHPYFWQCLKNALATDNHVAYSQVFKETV
Text: as §1, §2, §3

[1] = same protocol as Example A, Table 3 comparison
[2] = TLR9 agonist ODN-2216 3 μM, 6 hours, cytokines (IL-6 and IFNα) in supernatant, Table 2
[3] = TLR7 agonist GS-986 400 nM, 6 hours, cytokines (IL-6 and IFNα) in supernatant, Table 2

| EC50 (TLR9; [1]) [nM] | EC50 (TLR7; [1]) [nM] | EC50 (TLR9; [2]) [nM] | EC50 (TLR7; [3]) [nM] | Structure (SMILES) |
| --- | --- | --- | --- | --- |
| 716 | 0.5 |  |  | Cc1cc(-c2[nH]c3ccc(-c4ccc(N5CCNCC5)nc4)cc3c2C(C)C)cn2ncnc12 [Example B, reference compound] |
|  |  | 33.2 | 6.8 | Cc1cc(-c2ccc3c(C)c(-c4ccc(N5CCNCC5)nc4)[nH]c3c2)cc(C)n1 [Example 2, 6-(2,6-dimethylpyridin-4-yl)-3-methyl-2-(6-(piperazin-1-yl)pyridin-3-yl)-1H-indole] |
| 263 | 3.9 |  |  | Cc1cc(-c2[nH]c3ccc(-c4ccc(N5CCNCC5)nc4)cc3c2C(C)C)cc(C)n1 [Example A, reference compound] |
|  |  | 322 | 1.4 | Cc1c(-c2ccc(N3CCNCC3)nc2)[nH]c2cc(-c3cc(C)c4ncnn4c3)ccc12 [Example 4] |
|  |  | 34.6 | 7.3 | Cc1cc(-c2ccc3c(C)c(-c4cnc(N5CCNCC5)nc4)[nH]c3c2)cc(C)n1 [Example 1, 6-(2,6-dimethylpyridin-4-yl)-3-methyl-2-(2-(piperazin-1-yl)pyrimidin-5-yl)-1H-indole] |
|  |  | 508 | 0.5 | Cc1c(-c2ccc(N3CCNCC3)nc2)[nH]c2cc(-c3ccc(C#N)c4ncccc34)ccc12 [Example 7] |
|  |  | 305 | 0.5 | CCc1c(-c2ccc(N3CCNCC3)nc2)[nH]c2cc(-c3cc(C)c4ncnn4c3)ccc12 [Example 23] |
